Measured values taken from patent publication US4939156A (priority 1987, dated 1990).
In brackets after ≈: the same amount, converted by molar mass.

Key:
[1] = tested on: human premyelocytic leukemia cells (HL-60); experiment: 50% inhibition of propagation of undifferentiated human premyelocytic leukemia HL-60 cells; format: cell-based; conditions: 144 h, 6 days incubation, read-out: Activity of test compound to inhibit by 50% the undifferentiated propagation of HL-60 cells (IC50)
Procedure: (§1) The human premyelocytic elukemia cells (HL-60 cell) are characterized by the ability to respond to pharmacological inducers of differentiation and can produce the normal granulocytes when they have been differentiated, as described in the "Blood" Vol. 54, No. 3, 713-733 (1979).
(§2) Thus, firstly the cell differentiation-inducing activity of the compound was assayed by the following procedure described in said "Blood". Namely, HL-60 cells were incubated by passing successively through RPMI 1640 media supplemented with 10% FCS (fetal calf serum), followed by adding the test compound at varying concentrations to aliquots of the culture of the HL-60 cells at the logarithmic phase of growth. The HL-60 cells thus incubated were further incubated in the presence of the test compound for 6 days and subsequently fixed to slide glasses. The fixed HL-60 cells were stained with May-Gruenwald-Giemsa's reagent and the morphology of the nuclei in the stained cells was examined to judge which of the cells has been differentiated into the normal granulocytes. Then, the number of the HL-60 cells which had propagated were counted.
As said "IC50 " concentration of the test compound was assumed such concentration of the test compound at which the counted number of the HL-60 cells having propagated was reduced by 50%, as compared to that counted in the control tests where the test compound was not used.

[2] = tested on: human premyelocytic leukemia cells (HL-60); experiment: NBT-reducing ability (differentiation) of HL-60 cells after treatment with test compound; format: cell-based; conditions: 0.1% NBT, 37° C., 20 minutes
Procedure: as §1, §2
Secondly, the another aliquot of the culture of the HL-60 cells which were incubated in the above procedure in the presence of the test compound at its evaluated "IC50 " concentration was centrifuged to collect the cells, which were then diluted with a volume of RPMI 1640 medium supplemented with 10% FCS, to provide a given concentration of the cells. Subsequently, the cells which were diluted with said medium were added and mixed with 0.1% of NBT and then incubated at 37° C. for 20 minutes. The number of the cells which stained black color owing to the involved reduction of NBT and which could be judged to have the ability to reduce NBT was counted.

[3] = tested on: Influenza virus A/PR/8/34 strain; experiment: Antiviral activity, Virus No. 1 infested MDCK cell; format: cell-based
[4] = tested on: Newcastle disease virus (NDV) Miyadera strain; experiment: microbe, parasite or virus in culture; format: cell-based
[5] = tested on: vesicular stomatitis virus (VSV) New Jersey strain; experiment: microbe, parasite or virus in culture; format: cell-based
[6] = tested on: Vaccinia virus Lister strain; experiment: organism not typed; format: cell-based
[7] = tested on: Herpes simplex virus (HSV) Type 2 196 strain; experiment: Antiviral activity, Virus No. 5 infested Vero cell; format: cell-based
mice = experiment: Acute toxicity in mice given i.p.; format: in vivo; conditions: twice a day, 4 days, counted at 5th day
Procedure: For estimation of toxicity of the new compounds of this invention for mammalian animals, acute toxicity of the TI-27 Substance of Example 1 as a representative example was tested by intraperitoneal administration of a suspension of 25 mg/ml of TI-27 substance in a 0.5% aqueous solution of carboxymethyl cellulose (CMC) to mice (five in each group). The TI-27 substance was given to mice twice a day at a unit dosage of 5 mg, 1.25 mg, 0.313 mg, 0.078 mg or 0.02 mg per mouse for consecutive 4 days, totally 8 times. The number of the surviving mice which tolerated the administration of TI-27 Substance was counted at the 5th day of the tests.

in vitro [8] = conditions: human, hela-y cells
in vitro [9] = conditions: monkey, vero cells
in vitro [10] = conditions: mouse, l-929 cells
in vitro [11] = conditions: dog, mdck

CN1C(=O)[C@@H]2[C@H](N(C)C1=O)C(C)(C)C2(C)C (relative stereo) [TI-27 Substance, 2,4,7,7,8,8-hexamethyl-cis-2,4-diaza-bicyclo{4.2.0}octane-3,5-dione]
IC50 [1]: 35 µg/mL (≈ 156 µM) | Percent of the number of the cells showing the NBT-reducing ability after treatment with test compound at IC50 concentration [2]: 51% | IC50 ([3]; PR/8, MDCK, 48 h, read-out: Inhibitory Concentration (IC50) which inhibited by 50% the denaturation of Virus No. 1 infested MDCK cell): 188 µg/mL (≈ 838 µM) | Quotient of minimum denaturation concentration divided by IC50, Virus No. 1 ([3]; figures in brackets, MDCK cell, Influenza virus, 2880 min): 5.32 | IC50 ([4]; avian paramyxovirus 1, 48 h, read-out: Inhibitory Concentration (IC50) which inhibited by 50% the denaturation of Virus No. 2 infested HeLa-Y cell): > 250 µg/mL | Quotient of minimum denaturation concentration divided by IC50, Virus No. 2 ([4]; figures in brackets, HeLa-Y cell, NDV, 2880 min): < 1.0 | IC50 ([5]; Vesicular stomatitis virus, L929, 48 h, read-out: Inhibitory Concentration (IC50) which inhibited by 50% the denaturation of Virus No. 3 infested L-929 cell): > 500 µg/mL | Quotient of minimum denaturation concentration divided by IC50, Virus No. 3 ([5]; figures in brackets, L-929 cell, VSV, 2880 min): < 1.0 | IC50 ([6]; 48 h, read-out: Inhibitory Concentration (IC50) which inhibited by 50% the denaturation of Virus No. 4 infested HeLa-Y cell): > 250 µg/mL | Quotient of minimum denaturation concentration divided by IC50, Virus No. 4 ([6]; figures in brackets, HeLa-Y cell, Vaccinia virus, 2880 min): < 1.0 | IC50 ([7]; 48 h, HSV Type 2, Vero cell, […], read-out: Inhibitory Concentration (IC50) which inhibited by 50% the denaturation of Virus No. 5 infested Vello cell): > 500 µg/mL | Quotient of minimum denaturation concentration divided by IC50, Virus No. 5 ([7]; figures in brackets, Vero cell, HSV Type 2): < 1.0 | Number of surviving mice/number of mice tested (mice; 0.02 mg/mouse i.p.): 5/5 | Number of surviving mice/number of mice tested (mice; 0.078 mg/mouse i.p.): 5/5 | Number of surviving mice/number of mice tested (mice; 0.313 mg/mouse i.p.): 5/5 | Number of surviving mice/number of mice tested (mice; 1.25 mg/mouse i.p.): 1/5 | Number of surviving mice/number of mice tested (mice; 5 mg/mouse i.p.): 0/5 | MCC at 48 h (in vitro [8]): 250 µg/mL | MCC at 48 h (in vitro [9]): 500 µg/mL | MCC at 48 h (in vitro [10]): 250 µg/mL | MCC at 48 h (in vitro [11]): 1000 µg/mL
